The text below walks through data of ChEMBL document CHEMBL1201862, “PubChem BioAssay data set” (2004).

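A five-concentration, 48-hour dose response in 96-well plates underlies each endpoint, interpolated linearly between surrounding concentrations. GI50 marks 50% less growth.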 Active and inactive are the calls of the source. Rule as the data show it: active = GI50 up to about 1.1 µM and inactive = higher.

Assay in all cases: NCI tumour cell line growth inhibition, 48 h
Assay [1] concerns ACHN.
In assay [2] the test system is NCI-H23.
Assay [3] deals with LOX IMVI.
Assay [4] concerns NCI/ADR-RES.
Assay [5] deals with MCF7.
Assay [6] relates to TK-10.
Assay [7] deals with OVCAR-5.
In assay [8] the test system is RPMI-8226.
Assay [9] has as its system T47D.
Assay [10] deals with OVCAR-3.
The test system of assay [11] is HL-60.
The subject of assay [12] is NCI-H460.
The subject of assay [13] is SNB-19.
Assay [14] concerns HCC 2998.
In assay [15] the test system is MDA-MB-231.
Assay [16] relates to DU-145.
Assay [17] deals with EKVX.
For assay [18], the system named is SK-MEL-5.
The subject of assay [19] is MDA-MB-435.

As to `CCc1nnc2sc(-c3ccc(-c4ccccc4[N+](=O)[O-])o3)nn12`, the GI50 in [1] was 62.2 µM (inactive); in [2], 32.9 µM (inactive); in [3], 36.2 µM (inactive); in [4] it was 27 µM (inactive); in assay [5], 19.7 µM (inactive); in assay [6] it was 75.7 µM (inactive). Further, the GI50 in assay [7] is 62.2 µM (inactive); in assay [8] it was 20.7 µM (inactive); in assay [9], 36.3 µM (inactive); in [10] it was 32.1 µM (inactive); in assay [11], 24 µM (inactive); in assay [12], 31 µM (inactive). For the same compound, the GI50 in assay [13] was 75.3 µM (inactive); in assay [14], 50.1 µM (inactive); in [15], 53.1 µM (inactive); in [16], 66.2 µM (inactive); in [17], 21.6 µM (inactive); in assay [18], 27.7 µM (inactive). For the same compound, the GI50 in [19] is 20.3 µM (inactive).

As for `C[C@@H]1C[C@@]2(O[C@@H]2C)C(=O)O[C@@H]2CCN3CC=C(COC(=O)[C@]1(C)O)[C@H]23`, the GI50 in assay [1], in [2], in assay [3], in assay [4], in assay [5] and in assay [6] was > 100 µM (inactive) throughout. Further, the GI50 in assay [7], in [8], in [9], in assay [10], in assay [11] and in [12] was > 100 µM (inactive) in each case. Also, the GI50 in [13], in [14], in [15], in assay [16], in [17] and in assay [18] was > 100 µM (inactive) in each case. The GI50 in [19] is > 100 µM (inactive).

Take `CC#CC(O)(C(=O)OCCCN(C)C)C1CCCCC1` (configuration not stated): the GI50 in [1], in assay [2], in [3], in assay [4], in assay [5] and in assay [6] was > 100 µM (inactive) each time. Besides, the GI50 in assay [7], in assay [8], in assay [9], in [10], in [11] and in [12] was > 100 µM (inactive) each time. The GI50 in assay [13], in assay [14], in assay [15], in assay [16], in assay [17] and in [18] was > 100 µM (inactive) throughout. Moreover, the GI50 in [19] was > 100 µM (inactive).

For `Cc1ccc(NC(=S)N/N=C2\C(=O)Nc3ccccc32)cc1`, the GI50 was 61.5 µM (inactive) in assay [1]; > 100 µM (inactive) in assay [2]; 66.5 µM (inactive) in assay [3]; 51.3 µM (inactive) in assay [4]; > 100 µM (inactive) in [5]; > 100 µM (inactive) in assay [6]. Besides, the GI50 in [7] was > 100 µM (inactive); in assay [8], > 100 µM (inactive); in assay [9], > 100 µM (inactive); in [10], > 100 µM (inactive); in [11], > 100 µM (inactive); in assay [12], 83 µM (inactive). The GI50 in [13] is > 100 µM (inactive); in assay [14] it was > 100 µM (inactive); in assay [15], > 100 µM (inactive); in assay [16], 4.43 µM (inactive); in assay [17], 75.9 µM (inactive); in assay [18], 59.7 µM (inactive). Besides, the GI50 in assay [19] is > 100 µM (inactive).

With `O=C1Nc2cccc(Cl)c2/C1=C\c1c(-c2ccccc2)nc2n1CCS2`, the GI50 in assay [1] is 16.4 µM (inactive); in [2] it was 23.3 µM (inactive); in assay [3], 16 µM (inactive); in [4] it was 16.3 µM (inactive); in [5], 18.4 µM (inactive); in [6] it was 13.2 µM (inactive). Also, the GI50 is 22.8 µM (inactive) in [7]; 16.5 µM (inactive) in assay [8]; 17.5 µM (inactive) in [9]; 19.4 µM (inactive) in assay [10]; 16.3 µM (inactive) in [11]; 17.8 µM (inactive) in assay [12]. Besides, the GI50 was 26.6 µM (inactive) in assay [13]; 21.3 µM (inactive) in assay [14]; 20.7 µM (inactive) in assay [15]; 19.8 µM (inactive) in assay [16]; 26.1 µM (inactive) in assay [17]; 19.5 µM (inactive) in [18]. Also, the GI50 in [19] is 18.2 µM (inactive).

Take `O=C(O)CCO/N=C1/C(=C2/C(=O)Nc3ccccc32)Nc2ccccc21`: the GI50 in assay [1] was 15.2 µM (inactive); in assay [2] it was 17.7 µM (inactive); in assay [3], 12.4 µM (inactive); in assay [4] it was 42.2 µM (inactive); in [5], 23.3 µM (inactive); in assay [6], 32.4 µM (inactive). Moreover, the GI50 in assay [7] was 40.9 µM (inactive); in [8], 42.2 µM (inactive); in assay [9], 13.3 µM (inactive); in assay [10], 11.7 µM (inactive); in assay [11] it was 23.7 µM (inactive); in assay [12], 17.6 µM (inactive). Further, the GI50 was 40.5 µM (inactive) in assay [13]; 15.3 µM (inactive) in assay [14]; 37.4 µM (inactive) in assay [15]; 17.2 µM (inactive) in assay [16]; 11.2 µM (inactive) in [17]; 13.4 µM (inactive) in [18]. Further, the GI50 in assay [19] was 29.6 µM (inactive).

For `O=C(O)c1ccccc1NC(=S)c1ccccc1`, the GI50 in [1] is 24.7 µM (inactive); in [2], 80.9 µM (inactive); in assay [3] it was 30.5 µM (inactive); in assay [4], 51.1 µM (inactive); in [5], 31.3 µM (inactive); in assay [6], 35.8 µM (inactive). Also, the GI50 was > 100 µM (inactive) in assay [7]; 28.2 µM (inactive) in assay [8]; 34.2 µM (inactive) in assay [9]; 34.4 µM (inactive) in [10]; 34 µM (inactive) in assay [11]; 53.2 µM (inactive) in assay [12]. Further, the GI50 was 48.5 µM (inactive) in assay [13]; < 0.01 µM (active) in [14]; 60.5 µM (inactive) in assay [15]; > 100 µM (inactive) in [16]; 37.8 µM (inactive) in [17]; 38.5 µM (inactive) in assay [18]. Besides, the GI50 in [19] was 52.8 µM (inactive).

Turning to `c1ccc2c(c1)-c1ccccc1C2NC1=NCCO1`, the GI50 is 28.8 µM (inactive) in assay [1]; 34.1 µM (inactive) in assay [2]; 20.5 µM (inactive) in [3]; 23.4 µM (inactive) in [4]; 22.5 µM (inactive) in assay [5]; 28.1 µM (inactive) in assay [6]. For the same compound, the GI50 was 38.8 µM (inactive) in assay [7]; 28.4 µM (inactive) in [8]; 39.4 µM (inactive) in assay [9]; 23.1 µM (inactive) in assay [10]; 26.5 µM (inactive) in assay [11]; 14 µM (inactive) in assay [12]. For the same compound, the GI50 in assay [13] was 36.6 µM (inactive); in assay [14] it was 15.6 µM (inactive); in assay [15], 24.3 µM (inactive); in assay [16], 52.6 µM (inactive); in [17], 40.6 µM (inactive); in [18] it was 15.7 µM (inactive). For the same compound, the GI50 in assay [19] was 23 µM (inactive).
